Test results taken from patent US20210115521A1, “METHOD FOR INHIBITING TUMOR PROGRESSION OR DETERMINING TUMOR PROGRESSION STATE IN GASTRIC CANCER” (National Tsing Hua University, priority 2019, published 2021).
Residues, ends and D or L forms follow the SMILES beside them. *: point of attachment. Cbz = O=C(OCc1ccccc1)*

Assays:
[1] = system: MKN28 cells; test: Zebrafish xenotransplantation migration assay, MKN28; format: in vivo; conditions: MKN28-injected embryos, immersion in 1 μM at 1 dpi, read at 3 dpi
Method: The Tg (fli1: EGFP) zebrafish transgenic strain was purchased from ZIRC (Oregon, USA). […] At two-day post-fertilization, the embryos were dechorionated and subsequently anesthetized with tricaine (0.04 mg/ml). MKN28 or MKN45 cells were labeled with either CFSE or CM-DiI. Two hundred labeled cells (4.6 nl) were injected into the yolk of two-day old embryo using a Nanoject II Auto-Nanoliter Injector (Drummond Science, Broomall, Pa., USA). Later, individual recipients were examined for fluorescent cells 1 and 3 day-post injection by a fluorescence microscopy (Leica).
Next, to evaluate migration behavior using a zebrafish xenotransplantation assay, an efficient in vivo system that utilizes a small number of cells (100 to 200 cells) to accurately monitor cell migratory activity within a couple of days. Cells (pLKO vs. shPHF8) were labeled with carboxyfluorescein succinimidyl ester (CFSE), an amine-reactive green fluorescent dye, and injected into zebrafish embryos. Migration activity was monitored at 1-day postinjection (1 dpi) and 3 dpi by fluorescence microscopy.

[2] = system: MKN45 cells; test: Zebrafish xenotransplantation migration assay, MKN45; format: in vivo; conditions: MKN45-injected embryos, immersion in 1 μM at 1 dpi, read at 3 dpi
Method: The Tg (fli1: EGFP) zebrafish transgenic strain was purchased from ZIRC (Oregon, USA). The zebrafish embryos, larvae, and adult fish were maintained in the Taiwan Zebrafish Core Facility @ NHRI. At two-day post-fertilization, the embryos were dechorionated and subsequently anesthetized with tricaine (0.04 mg/ml). MKN28 or MKN45 cells were labeled with either CFSE or CM-DiI. Two hundred labeled cells (4.6 nl) were injected into the yolk of two-day old embryo using a Nanoject II Auto-Nanoliter Injector (Drummond Science, Broomall, Pa., USA). Later, individual recipients were examined for fluorescent cells 1 and 3 day-post injection by a fluorescence microscopy (Leica). […]
Next, to evaluate migration behavior using a zebrafish xenotransplantation assay, an efficient in vivo system that utilizes a small number of cells (100 to 200 cells) to accurately monitor cell migratory activity within a couple of days. […] Migration activity was monitored at 1-day postinjection (1 dpi) and 3 dpi by fluorescence microscopy.
Next, to corroborate this finding using a zebrafish xeno-transplantation model. Cells labeled with Vybrant CM-DiI (CM-Dil) (red fluorescence dye) were injected into the embryos of Tg (fli1: EGFP) (fish with green fluorescence in blood vessels), followed by immersion in solutions containing 1 μM m Midostaurin or Bosutinib (a sublethal dose) at 1 dpi. […]

[3] = system: PTEN; test: PTEN protein level by Western blotting in MKN28; format: cell-based, human; conditions: MG132-treated pLKO MKN28 cells
Description: FIG. 15. Pharmacological inhibition of PHF8-PKCα-Src-PTEN blocks GC progression in vitro and in vivo. […] Data from FIGS. 15B and 15D are presented as the average of three replicates ±SD **P<0.01 (two-tailed Student's t test). Zebrafish xeno-transplantation assays using Mido or Bosu. […] Cyan, blood vessel. […] Total number of embryos used in vehicle, Mido, and Bosu is shown in the bracket. Data were obtained from three independent studies. **P<0.01 (two-tailed Student's t test).
(§1) For immunoblotting assay, PBS-washed cells collected by scraping were directly lysed in RIPA buffer supplemented with protease inhibitor (Santa Cruz) and PhosSTOP (Sigma). Appropriate amounts of protein were separated on SDS-PAGE and then electrotransferred to PVDF membrane (PALL, Protein Washington, N.Y., USA). After the transfer, each membrane was incubated with appropriate primary antibody overnight at 4° C. and then probed with secondary antibodies conjugated with fluorescence. Odyssey Infrared Imaging System (LI-COR Biosciences, Lincoln, Nebr., USA) was utilized to detect the level of fluorescence. For immunoprecipitation assay, cell pellets were lysed in lysis buffer [50 mM Tris-HCl (pH 7.4), 150 mM NaCl, 0.5% NP40)] containing protease inhibitor (Santa Cruz). […]

[4] = system: PTEN; test: PTEN protein level by Western blotting in MKN45; format: cell-based, human; conditions: MG132-treated pLKO MKN45 cells
Method: FIG. 16. Pharmacological inhibition of PHF8-PKCα-Src-PTEN blocks GC progression in vitro and in vivo. […] Data form FIGS. 16B and 16D are presented as the average of 3 replicates ±SD. *p<0.05, **p<0.01 (two-tailed Student's t test). Zebrafish xenotransplantation assays using Mido or Bosu. Fluorescence microscopic analysis was conducted at 1 dpi and 3 dpi. […] Cyan, blood vessel. Scale bar, 100 μm. […] Total number of embryos used in vehicle, Mido, Bosu is shown in the bracket. Data were obtained from 3 independent studies. *p<0.05 (two-tailed Student's t test).
as §1

Row | Structure (SMILES) | embryos with migration behavior (dissemination and invasion) [1] [%] | embryos with migration behavior (metastatic activity) [2] [%] | PTEN protein level with MG132 treatment [3] | PTEN protein level with MG132 treatment [4]
1 | COc1cc(Nc2c(C#N)cnc3cc(OCCCN4CCN(C)CC4)c(OC)cc23)c(Cl)cc1Cl [Bosutinib] | 11.95 | 18.08 |  | 
2 | CO[C@@H]1[C@H](N(C)C(=O)c2ccccc2)C[C@H]2O[C@]1(C)n1c3ccccc3c3c4c(c5c6ccccc6n2c5c31)C(=O)NC4 [Midostaurin] | 11 | 13.88 |  | 
3 | CC(C)C[C@@H](C=O)NC(=O)[C@H](CC(C)C)NC(=O)[C@H](CC(C)C)NC(=O)OCc1ccccc1 [MG132] (Cbz-Leu-Leu-Leu-aldehyde) |  |  | rescued | rescued
